Experiments:
Type in all cases: in vivo
[1] = tested on: ducksalad (Heteranthera limosa); test: Test B flooded paddy test, ducksalad; conditions: 250 g ai/ha, Flood; visual rating after 13 to 15 days; scale 0 to 100, 0 is no effect, 100 is complete control
How it was run: (§1)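 Plants grown to 2-leaf stage, pots flooded to 3 cm above soil and compound applied directly to paddy water, depth maintained throughout. After 13-15 days in greenhouse, visual rating against untreated controls on 0-100 scale (0 no effect, 100 complete control).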

[2] = tested on: ragweed (common ragweed, Ambrosia elatior); test: Test A preemergence, ragweed; conditions: Preemergence, 0 to 100 scale (0 no effect, 100 complete control)
How it was run: (§2)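 Scores (0 no effect to 100 complete control) come from visual comparison of treated and untreated plants kept about 10 days in a greenhouse. Growth medium was a loam/sand blend; preemergence treatment was a directed soil spray, postemergence treatment went onto plants at the 1–2 leaf stage.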

[3] = tested on: ryegrass, Italian (Italian ryegrass, Lolium multiflorum); test: Test A postemergence, Italian ryegrass
How it was run: as §2

kochia (Kochia scoparia) [4] = test: Test A postemergence, kochia
How it was run: as §2

[5] = tested on: sedge, umbrella (small-flower umbrella sedge, Cyperus difformis); test: Test B flooded paddy test, umbrella sedge; conditions: 250 g ai/ha, Flood; visual rating after 13 to 15 days; scale 0 to 100, 0 is no effect, 100 is complete control
How it was run: as §1

rice (Oryza sativa) = test: Test B flooded paddy test, rice; conditions: 250 g ai/ha, Flood; visual rating after 13 to 15 days; scale 0 to 100, 0 is no effect, 100 is complete control
How it was run: as §1

[6] = tested on: foxtail, giant (giant foxtail, Setaria faberii); test: Test A preemergence, giant foxtail; conditions: Preemergence, 0 to 100 scale (0 no effect, 100 complete control)
How it was run: as §2

[7] = tested on: barnyardgrass (Echinochloa crus-galli); test: Test A preemergence, barnyardgrass; conditions: Preemergence, 0 to 100 scale (0 no effect, 100 complete control)
How it was run: as §2

[8] = tested on: galium (catchweed bedstraw, Galium aparine); test: Test A postemergence, galium
How it was run: as §2

[9] = tested on: blackgrass (Alopecurus myosuroides); test: Test A postemergence, blackgrass
How it was run: as §2

[10] = tested on: wheat (Triticum aestivum); test: Test A postemergence, wheat
How it was run: as §2

[11] = tested on: barnyardgrass (Echinochloa crus-galli); test: Test B flooded paddy test, barnyardgrass; conditions: 250 g ai/ha, Flood; visual rating after 13 to 15 days; scale 0 to 100, 0 is no effect, 100 is complete control
How it was run: as §1

[12] = tested on: pigweed (Amaranthus retroflexus); test: Test A postemergence, pigweed
How it was run: as §2

kochia (Kochia scoparia) [13] = test: Test A preemergence, kochia; conditions: Preemergence, 0 to 100 scale (0 no effect, 100 complete control)
How it was run: as §2

corn (Zea mays) = test: Test A postemergence, corn
How it was run: as §2

[14] = tested on: ryegrass, Italian (Italian ryegrass, Lolium multiflorum); test: Test A preemergence, Italian ryegrass; conditions: Preemergence, 0 to 100 scale (0 no effect, 100 complete control)
How it was run: as §2

[15] = tested on: pigweed (Amaranthus retroflexus); test: Test A preemergence, pigweed; conditions: Preemergence, 0 to 100 scale (0 no effect, 100 complete control)
How it was run: as §2

[16] = tested on: foxtail, giant (giant foxtail, Setaria faberii); test: Test A postemergence, giant foxtail
How it was run: as §2

[17] = tested on: ragweed (common ragweed, Ambrosia elatior); test: Test A postemergence, ragweed
How it was run: as §2

[18] = tested on: barnyardgrass (Echinochloa crus-galli); test: Test A postemergence, barnyardgrass
How it was run: as §2

[19] = 125 g ai/ha, postemergence, 0 to 100 scale, 0 is no effect, 100 is complete control, approximately 10 days
[20] = Postemergence, 31 g ai/ha, 0 to 100 scale (0 no effect, 100 complete control)
[21] = 31 g ai/ha, postemergence, 0 to 100 scale, 0 is no effect, 100 is complete control, approximately 10 days
[22] = 500 g ai/ha, postemergence, 0 to 100 scale, 0 is no effect, 100 is complete control, approximately 10 days

| Compound | Plant response rating, Ducksalad [1] | Plant response rating, Ragweed ([2]; 125 g ai/ha) | Plant response rating, Ryegrass, Italian [3, 19] | Plant response rating, Kochia (kochia (Kochia scoparia) [4]; [19]) | Plant response rating, Sedge, Umbrella [5] | Plant response rating, Rice (rice (Oryza sativa)) | Plant response rating, Foxtail, Giant ([6]; 125 g ai/ha) | Plant response rating, Barnyardgrass ([7]; 125 g ai/ha) | Plant response rating, Galium [8, 19] | Plant response rating, Blackgrass [9, 19] | Plant response rating, Wheat [10, 19] | Plant response rating, Barnyardgrass [11] | Plant response rating, Pigweed [12, 19] | Plant response rating, Kochia (kochia (Kochia scoparia) [13]; 125 g ai/ha) | Plant response rating, Corn (corn (Zea mays); [19]) | Plant response rating, Ryegrass, Italian ([14]; 125 g ai/ha) | Plant response rating, Pigweed ([15]; 125 g ai/ha) | Plant response rating, Foxtail, Giant [16, 19] | Plant response rating, Ragweed [17, 19] | Plant response rating, Barnyardgrass [18, 19] | also measured |
| --- | --- | --- | --- | --- | --- | --- | --- | --- | --- | --- | --- | --- | --- | --- | --- | --- | --- | --- | --- | --- | --- |
| Cc1cccc(Oc2ncc(Cl)cn2)c1OCCCC#N [Compound 70] | 70 | 0 | 0 | 30 | 50 | 0 | 30 | 70 | 20 | 0 | 0 | 0 | 40 | 20 | 20 | 0 | 50 | 0 | 20 | 30 | Plant response rating, Ragweed ([2]; 31 g ai/ha): 0; Plant response rating, Ryegrass, Italian [3, 20]: 0; Plant response rating, Kochia (kochia (Kochia scoparia) [4]; [20]): 20; Plant response rating, Foxtail, Giant ([6]; 31 g ai/ha): 0; Plant response rating, Barnyardgrass ([7]; 31 g ai/ha): 0; Plant response rating, Galium [8, 20]: 0; Plant response rating, Blackgrass [9, 20]: 0; Plant response rating, Wheat [10, 20]: 0; Plant response rating, Pigweed [12, 20]: 20; Plant response rating, Kochia (kochia (Kochia scoparia) [13]; 31 g ai/ha): 0; Plant response rating, Corn (corn (Zea mays); [20]): 0; Plant response rating, Ryegrass, Italian ([14]; 31 g ai/ha): 0; Plant response rating, Pigweed ([15]; 31 g ai/ha): 0; Plant response rating, Foxtail, Giant [16, 20]: 0; Plant response rating, Ragweed [17, 20]: 0; Plant response rating, Barnyardgrass [18, 20]: 0 |
| FC(F)(F)/C=C/COc1c(Cl)cccc1Oc1ncc(Cl)cn1 [Compound 47] | 85 | 0 | 10 | 90 | 100 | 0 | 100 | 50 | 80 | 50 | 0 | 0 | 90 | 80 | 20 | 10 | 60 | 70 | 10 | 40 | Plant response rating, Ragweed ([2]; 31 g ai/ha): 0; Plant response rating, Ryegrass, Italian [3, 21]: 0; Plant response rating, Kochia (kochia (Kochia scoparia) [4]; [21]): 50; Plant response rating, Foxtail, Giant ([6]; 31 g ai/ha): 30; Plant response rating, Barnyardgrass ([7]; 31 g ai/ha): 10; Plant response rating, Galium [8, 21]: 50; Plant response rating, Blackgrass [9, 21]: 10; Plant response rating, Wheat [10, 21]: 0; Plant response rating, Pigweed [12, 21]: 20; Plant response rating, Kochia (kochia (Kochia scoparia) [13]; 31 g ai/ha): 0; Plant response rating, Corn (corn (Zea mays); [21]): 10; Plant response rating, Ryegrass, Italian ([14]; 31 g ai/ha): 0; Plant response rating, Pigweed ([15]; 31 g ai/ha): 0; Plant response rating, Foxtail, Giant [16, 21]: 20; Plant response rating, Ragweed [17, 21]: 0; Plant response rating, Barnyardgrass [18, 21]: 10 |
| Fc1cccc(Oc2ncc(Cl)cn2)c1OC/C=C/Cl [Compound 9] | 80 | 0 | 0 | 70 | 80 | 0 | 100 | 40 | 60 | 10 | 0 | 0 | 60 | 40 | 10 | 0 | 80 | 20 | 0 | 20 | Plant response rating, Ragweed ([2]; 500 g ai/ha): 0; Plant response rating, Ryegrass, Italian [3, 22]: 10; Plant response rating, Kochia (kochia (Kochia scoparia) [4]; [22]): 100; Plant response rating, Foxtail, Giant ([6]; 500 g ai/ha): 100; Plant response rating, Barnyardgrass ([7]; 500 g ai/ha): 100; Plant response rating, Galium [8, 22]: 90; Plant response rating, Blackgrass [9, 22]: 70; Plant response rating, Wheat [10, 22]: 10; Plant response rating, Pigweed [12, 22]: 100; Plant response rating, Kochia (kochia (Kochia scoparia) [13]; 500 g ai/ha): 100; Plant response rating, Corn (corn (Zea mays); [22]): 30; Plant response rating, Ryegrass, Italian ([14]; 500 g ai/ha): 20; Plant response rating, Pigweed ([15]; 500 g ai/ha): 100; Plant response rating, Foxtail, Giant [16, 22]: 80; Plant response rating, Ragweed [17, 22]: 0; Plant response rating, Barnyardgrass [18, 22]: 80 |
| Fc1cccc(Oc2ncc(Cl)cn2)c1OCCCC(F)(F)F [Compound 27] | 90 | 0 | 0 | 80 | 70 | 0 | 80 | 90 | 30 | 30 | 0 | 0 | 50 | 70 | 0 | 40 | 90 | 20 | 0 | 50 | Plant response rating, Ragweed ([2]; 500 g ai/ha): 20; Plant response rating, Ryegrass, Italian [3, 22]: 30; Plant response rating, Kochia (kochia (Kochia scoparia) [4]; [22]): 100; Plant response rating, Foxtail, Giant ([6]; 500 g ai/ha): 100; Plant response rating, Barnyardgrass ([7]; 500 g ai/ha): 100; Plant response rating, Galium [8, 22]: 90; Plant response rating, Blackgrass [9, 22]: 60; Plant response rating, Wheat [10, 22]: 10; Plant response rating, Pigweed [12, 22]: 60; Plant response rating, Kochia (kochia (Kochia scoparia) [13]; 500 g ai/ha): 100; Plant response rating, Corn (corn (Zea mays); [22]): 10; Plant response rating, Ryegrass, Italian ([14]; 500 g ai/ha): 90; Plant response rating, Pigweed ([15]; 500 g ai/ha): 100; Plant response rating, Foxtail, Giant [16, 22]: 80; Plant response rating, Ragweed [17, 22]: 10; Plant response rating, Barnyardgrass [18, 22]: 80 |
| FC(F)(F)CCOc1c(I)cccc1Oc1ncc(Cl)cn1 [Compound 69] | 100 | 0 | 90 | 100 | 100 | 15 | 100 | 100 | 100 | 80 | 30 | 40 | 100 | 100 | 70 | 50 | 100 | 100 | 40 | 100 | Plant response rating, Ragweed ([2]; 31 g ai/ha): 0; Plant response rating, Ryegrass, Italian [3, 20]: 0; Plant response rating, Kochia (kochia (Kochia scoparia) [4]; [20]): 90; Plant response rating, Foxtail, Giant ([6]; 31 g ai/ha): 90; Plant response rating, Barnyardgrass ([7]; 31 g ai/ha): 90; Plant response rating, Galium [8, 20]: 60; Plant response rating, Blackgrass [9, 20]: 30; Plant response rating, Wheat [10, 20]: 0; Plant response rating, Pigweed [12, 20]: 100; Plant response rating, Kochia (kochia (Kochia scoparia) [13]; 31 g ai/ha): 80; Plant response rating, Corn (corn (Zea mays); [20]): 20; Plant response rating, Ryegrass, Italian ([14]; 31 g ai/ha): 10; Plant response rating, Pigweed ([15]; 31 g ai/ha): 90; Plant response rating, Foxtail, Giant [16, 20]: 40; Plant response rating, Ragweed [17, 20]: 30; Plant response rating, Barnyardgrass [18, 20]: 60 |

Source: patent publication US10485235B2, “Aryloxypyrimidinyl ethers as herbicides” (FMC Corporation, priority 2015, dated 2019)
